Read-outs that look alike come from different tables or passages of the source. Values belong to the molecule of their own block, whether it stands above or below them.
Assays:
[1] = system: anti-GBM nephritis model S.D. rats; assay: Albuminuria amelioration activity for anti-GBM nephritis model using S.D. rats; type: in vivo, rat; details: oral 30 mg/kg twice daily, urine 0-24 hr after antibody, control group 794.2 ± 113.2
Method: Anti-GBM antibody produced by immunizing domestic rabbits with a rat-derived GBM fraction was caudointravenously administered to S.D. male rats of 8 weeks old to induce nephritis. Immediately after the administration of the antibody and six hr after the administration of the antibody, the compound of Example 300 was orally administered at 30 mg/kg. Urine was collected in a period between immediately after the administration of the antibody and 24 hr after the administration of the antibody, and the protein level of urine was measured to observe albuminuria amelioration activity.

[2] = system: spontaneously hypertensive male rats (SHR); assay: Antihypertensive activity in spontaneously hypertensive rats; type: in vivo; details: Rattus norvegicus, po, 30 mg/kg oral, mean ± SEM of 3 to 4 SHRs, read-out: Blood pressure depression, %
Method: This test was carried out as follows. A test compound was dissolved in purified water, or alternatively the test compound was suspended in a 5% aqueous sodium carboxymethylcellulose solution. The solution or the suspension was forcibly administered into the gaster of SHR through an oral probe. The systolic pressure of SHR was measured with a bloodless sphygmometer (BP-98A, Softron Co.) immediately before the administration of the test compound and 3 to 4 hr after the administration of the test compound or 6 to 7 hr after the administration of the test compound. The percentage of blood pressure depression was calculated by the following equation: Antihypertensive activity (%)={(blood pressure before administration of test compound−blood pressure after administration of test compound)/blood pressure before administration of test compound}×100
Each compound was administered at 30 mg/kg, and the antihypertensive activity (%) was expressed in terms of the mean value of 3 to 4 SHRs and SEM (standard error of the mean).
For data with *, the blood pressure was measured 6 to 7 hr after the administration of the test compound, and, for data with no marks, the blood pressure was measured 3 to 4 hr after the administration of the test compound.

[3] = system: Human-derived histiocyte lymphoma (U937/CCR2); assay: Leukocyte migration inhibitory activity (MCP-1 induced migration, CHEMOTAXICELL); type: cell-based; details: Homo sapiens, U-937, 1 h, U937/CCR2, MCP-1, 1 hr, read-out: Migration inhibition (%) ± SEM; for inhibition at 0.3 µM: test compound 0.3 μM; for inhibition at 1 µM: test compound 1 μM
Method: Human-derived histiocyte lymphoma (U937/CCR2), in which mouse-derived CCR2 had been highly expressed, was suspended in a 0.1% BSA-containing RPMI 1640 medium, to which a test compound had been added (5×10^6/ml), and the suspension was incubated for 20 min. A chemical solution (500 μl) (0.1% BSA-containing RPMI 1640 medium DMSO 1%), to which an MCP-1 ligand (1 μM) and the test compound had been added, was added to a 24-well plate. CHEMOTAXICELL was put thereon, and 200 μl of the cell suspension was added to the top layer, followed by migration under 5% carbon dioxide at 37° C. for one hr. The number of cells, which had migrated to the lower chamber, was counted with a particle count analyzer (CDA-500, SYSMEX CORPORATION), and the percentage migration inhibition was calculated by the following equation; Migration inhibition (%)={1−(number of migrated cells in the presence of test compound/number of migrated cells in the absence of test compound)}×100

[4] = system: anti-GBM nephritis model WKY rats; assay: Albuminuria amelioration activity for anti-GBM nephritis model using WKY rats; type: in vivo, rat; details: 24 hr urine, control group 840.4 ± 82.2
Method: Anti-GBM antibody produced by immunizing domestic rabbits with a rat-derived GBM fraction was caudointravenously administered to WKY male rats of 9 weeks old to induce nephritis. […] During 24 hr from two weeks after the administration of the antibody, urine was collected, and the protein level of urine was measured to observe albuminuria amelioration activity.

[5] = target: Rho kinase (fused protein of bovine Rho kinase catalyst region and glutathione S-transferase) (Bos taurus, UniProt Q28021); assay: Rho kinase inhibitory activity (phosphorylation of S6 231–239 substrate, γ32P-ATP); type: biochemical; details: concentration inhibiting substrate phosphorylation by 50%
Method: This permits the substrate to be labeled with the radioisotope.
Thereafter, the substrate was adsorbed to a filter paper. ATP was washed away with a phosphoric acid solution, and the amount of the phosphorylated substrate was then measured with a liquid scintillation counter.

[6] = systolic pressure 6 to 7 hr after administration (data with *)
[7] = systolic pressure 3 to 4 hr after administration

Rho kinase (fused protein of bovine Rho kinase catalyst region and glutathione S-transferase), sequence (Q28021 92-354 limits assumed): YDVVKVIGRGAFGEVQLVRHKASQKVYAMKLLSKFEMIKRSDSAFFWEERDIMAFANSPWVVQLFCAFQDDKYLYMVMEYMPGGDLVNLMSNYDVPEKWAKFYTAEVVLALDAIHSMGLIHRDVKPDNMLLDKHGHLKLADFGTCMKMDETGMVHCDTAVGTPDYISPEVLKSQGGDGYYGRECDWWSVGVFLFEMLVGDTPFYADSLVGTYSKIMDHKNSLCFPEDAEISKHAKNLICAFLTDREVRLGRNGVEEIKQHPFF

SMILES: Fc1ccc(CN2CCCC(Nc3ccc4[nH]ncc4c3)C2)cc1F (centres unmarked) [Example 300, N-[1-(3,4-difluorobenzyl)-3-piperidyl)-N-(1H-5-indazolyl)amine]
Protein level of urine (mg/kg/day) ± SEM [1]: 437.1 ± 95.9 mg/kg/day
inhibition in vivo at 30 mg/kg [2, 6]: 24.1 ± 3.8%
inhibition at 0.3 µM [3]: 81.9 ± 11.9%
Protein level of urine (mg/kg/day) SEM ([4]; oral 30 mg/kg twice daily for two weeks): 602.2 ± 47.3 mg/kg/day

SMILES: CCCN[C@H]1CC[C@@H](Nc2cccc3cnccc23)CC1 [Example 260 (syn)]
inhibition in vivo at 30 mg/kg [2, 7]: 19.6 ± 10.5%
inhibition at 1 µM [3]: 56.5 ± 14.9%

IC50 [5]: 16 nM
SMILES: Fc1ccc(CN2CCCC(Nc3ccc4[nH]ncc4c3)C2)cc1 (centres unmarked) [Example 164, N-[1-(4-fluorobenzyl)-3-piperidyl]-N-(1H-5-indazolyl)amine]
inhibition in vivo at 30 mg/kg [2, 7]: 35 ± 4.7%

SMILES: O=C(NCCF)C(c1ccccc1)N1CCCC(Nc2ccc3[nH]ncc3c2)C1 (centres unmarked) [Example 227, N1-(2-fluoroethyl)-2-[3-(1H-5-indazolylamino)piperidino]-2-phenylacetamide]
inhibition in vivo at 30 mg/kg [2, 7]: 22.2 ± 7.4%
inhibition at 3 µM ([3]; test compound 3 μM): 100.3 ± 0.5%

SMILES: FC(F)(F)c1ccc(CN2CCCC(Nc3ccc4[nH]ncc4c3)C2)cc1 (centres unmarked) [Example 298, N-(1H-5-indazolyl)-N-{1-[4-(trifluoromethyl)-benzyl]-3-piperidyl}amine]
inhibition in vivo at 30 mg/kg [2, 6]: 18.9 ± 3.1%
inhibition at 0.3 µM [3]: 15.7 ± 9.9%

SMILES: FCCNC1CCC(Nc2ccc3[nH]ncc3c2)CC1 (centres unmarked) [Example 246, N1-(2-fluoroethyl)-N4-(1H-5-indazolyl)-1,4-cyclohexanediamine]
inhibition at 0.3 µM [3]: 41.9 ± 15.4%
Protein level of urine (mg/kg/day) SEM ([4]; 25 mg/liter together with drinking water for two weeks): 220.2 ± 17.7 mg/kg/day

SMILES: N[C@H]1CC[C@H](Nc2ccc3[nH]ncc3c2)CC1 [Example 248 (anti), N1-(1H-5-Indazolyl)-1,4-cyclohexanediamine]
inhibition in vivo at 30 mg/kg [2, 7]: 18.8 ± 8%

SMILES: c1ccc(CN2CCCC(Nc3ccc4[nH]ncc4c3)C2)cc1 (centres unmarked) [Example 21]
IC50 [5]: 20 nM
inhibition in vivo at 30 mg/kg [2, 7]: 37 ± 2.5%

SMILES: FCCN[C@H]1CC[C@H](Nc2ccc3[nH]ncc3c2)CC1 [Example 246 (anti), N1-(2-Fluoroethyl)-N4-(1H-5-indazolyl)-1,4-cyclohexanediamine]
inhibition in vivo at 30 mg/kg [2, 7]: 51.4 ± 0.9%

SMILES: FCCN[C@H]1CC[C@@H](Nc2cccc3cnccc23)CC1 [Example 261 (syn), N1-(2-Fluoroethyl)-N4-(5-isoquinolyl)-1,4-cyclohexanediamine]
inhibition in vivo at 30 mg/kg [2, 7]: 46.4 ± 4.8%
inhibition at 0.3 µM [3]: 24.2 ± 3.9%
inhibition at 1 µM [3]: 59.4 ± 10.4%

SMILES: FCCN[C@H]1CC[C@@H](Nc2ccc3[nH]ncc3c2)CC1 [Example 246 (syn), N1-(2-Fluoroethyl)-N4-(1H-5-indazolyl)-1,4-cyclohexanediamine]
inhibition in vivo at 30 mg/kg [2, 7]: 37.2 ± 11.7%

SMILES: CC(C)C(c1ccccc1)N1CCCC(Nc2ccc3[nH]ncc3c2)C1 (centres unmarked) [Example 240, N-(1H-5-indazolyl)-N-[1-(2-methyl-1-phenyl-propyl)-3-piperidyl]amine]
inhibition in vivo at 30 mg/kg [2, 7]: 21.1 ± 6.5%

SMILES: CCCN[C@H]1CC[C@@H](Nc2ccc3[nH]ncc3c2)CC1 [Example 243 (syn), N1-(1H-5-Indazolyl)-N4-propyl-1,4-cyclohexanediamine]
inhibition in vivo at 30 mg/kg [2, 7]: 26.4 ± 5%

SMILES: FCCN[C@H]1CC[C@H](Nc2cccc3cnccc23)CC1 [Example 261 (anti), N1-(2-Fluoroethyl)-N4-(5-isoquinolyl)-1,4-cyclohexanediamine]
inhibition in vivo at 30 mg/kg [2, 7]: 47.3 ± 3.6%

SMILES: FCCCN1CCC(Nc2ccc3[nH]ncc3c2)CC1 [Example 289, N-[1-(3-fluoropropyl)-4-piperidyl]-N-(1H-5-indazolyl)amine]
inhibition in vivo at 30 mg/kg [2, 7]: 30.8 ± 5.7%

SMILES: FC(F)(F)CCN1CCC(Nc2ccc3[nH]ncc3c2)CC1 [Example 290, N-(1H-5-indazolyl)-N-[1-(3,3,3-trifluoropropyl)-4-piperidyl]amine]
inhibition in vivo at 30 mg/kg [2, 7]: 17.2 ± 2.9%

SMILES: c1ccc(CN2CCC(Nc3ccc4[nH]ncc4c3)CC2)cc1 [Example 126, N-(1-benzyl-4-piperidyl)-N-(1H-5-indazolyl)-amine]
inhibition in vivo at 30 mg/kg [2, 7]: 18 ± 3.5%
inhibition at 30 µM ([3]; test compound 30 μM): 49.1 ± 4.6%

— patent US7217722B2 (Kirin Beer Kabushiki Kaisha, priority 2000, dated 2007)
